Assay results taken from patent US8470844B2, “Imidazoacridinone derivative compounds and methods for their use” (Technion Research & Development Foundation Limited, priority 2008, dated 2013).

Columns and labels:
[1] = system: A549/K1.5 cells; test: MTT cytotoxicity assay, ABCG2-overexpressing A549/K1.5 cells; format: cell-based, Human; conditions: for IC50: ABCG2-overexpressing A549/K1.5 cells, 96 hours exposure, MTT; for RF (resistance fold): IC50 of A549/K1.5 cells divided by IC50 of parental A549 cells
Procedure: (§1) Tissue culture: Human non-small cell lung cancer A549 cells and T-cell leukemia CCRF-CEM cells were grown under monolayer conditions or up to a maximal density of 10^6 cells/ml (for CCRF-CEM cells) in RPMI-1640 medium (GIBCO) supplemented with 10% fetal calf serum, 2 mM glutamine, 100 μg/ml penicillin and 100 μg/ml streptomycin (Biological Industries, Beth-Haemek, Israel) in a humid atmosphere of 5% CO2. Drug resistant A549/K1.5 cells with ABCG2 overexpression were maintained under a continuous drug selection with 1.5 μM C-1305. Bram, E. E., et al., (2007) Biochem Pharmacol 74(1), 41-53.
(§2) Cytotoxicity and growth inhibition assays: The cytotoxic activity of the various IA antitumor agents was determined using the MTT assay. Poindessous, V., et al., (2003) Clin Cancer Res 9(7), 2817-2825.
(§3) Exponentially growing cells were seeded at 5×10^3 cells/well in 24-well plates (2 ml medium/well). Following an overnight incubation, cells were exposed to different drug concentrations for 96 hours. Cellular viability was determined by adding the tetrazolium salt MTT for 4 h at 37° C., followed by solubilization of the intracellular precipitated formazan in 1 ml DMSO and absorbance was determined by a microplate reader (ASYS Hitech GmbH, Austria). Drug concentrations required to inhibit cell growth by 50% (IC50) compared with untreated controls were determined from the curves of survival versus drug concentrations using the SlideWrite software (Advanced Graphics Software, Inc., Encinitas, Calif.). Resistance folds (RF) were calculated by dividing the IC50 value of the resistant cells by that of the parental cell line. Values presented are means of at least three independent experiments, each performed in duplicates.
Quantitative evaluation of ABCG2 interaction with various IA derivatives: The extent of ABCG2-mediated resistance was expressed using the Resistance Fold (RF) parameter representing the ratio between the IC50 values of the resistant cells and parental cells. Likewise, ABCG2-dependent differential accumulation of IAs in ABCG2-overexpressing A549/K1.5 cells was compared using the ratio of IA accumulation in the presence or absence of the potent ABCG2 inhibitor FTC. This was termed the FTC-dependent Accumulation Fold (AF) and was determined for each IA at a constant IA concentration of 10 μM.

[2] = target: T1, ABCG2 (A549/K1.5 cells) (Homo sapiens, UniProt Q9UNQ0); test: Flow cytometric IA accumulation in A549/K1.5 cells with or without fumitremorgin C; format: cell-based
T1 construct: Drug resistant A549/K1.5 cells with ABCG2 overexpression were maintained under a continuous drug selection with 1.5 μM C-1305; endogenous in cells; host or cells: A549/K1.5 (C-1305-selected subline of human non-small cell lung cancer A549)
T1 sequence (Q9UNQ0 1-655): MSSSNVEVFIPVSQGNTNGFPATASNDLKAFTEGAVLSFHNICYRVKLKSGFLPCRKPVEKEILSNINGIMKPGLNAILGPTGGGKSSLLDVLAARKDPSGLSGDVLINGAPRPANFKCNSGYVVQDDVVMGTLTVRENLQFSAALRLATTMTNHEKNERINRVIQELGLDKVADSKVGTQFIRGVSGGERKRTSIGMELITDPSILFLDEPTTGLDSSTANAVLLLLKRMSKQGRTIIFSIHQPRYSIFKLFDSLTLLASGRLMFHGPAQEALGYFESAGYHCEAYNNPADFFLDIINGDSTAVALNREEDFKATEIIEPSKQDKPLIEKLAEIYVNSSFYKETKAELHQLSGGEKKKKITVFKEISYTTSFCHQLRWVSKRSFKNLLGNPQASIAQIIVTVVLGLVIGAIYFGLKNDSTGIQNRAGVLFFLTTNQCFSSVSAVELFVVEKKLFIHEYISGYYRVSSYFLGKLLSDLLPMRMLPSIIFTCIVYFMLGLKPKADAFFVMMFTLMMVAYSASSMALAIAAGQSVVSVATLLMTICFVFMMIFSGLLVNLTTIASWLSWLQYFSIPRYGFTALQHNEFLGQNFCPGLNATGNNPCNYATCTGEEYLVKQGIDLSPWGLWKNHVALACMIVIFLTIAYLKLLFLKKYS
Procedure: In this assay, one ml aliquots of A549/K1.5 or CCRF-CEM cell suspensions (1×10^6 cells/ml) in growth medium containing 20 mM Hepes at pH 7.3 were distributed into 1.5 ml polypropylene Eppendorf test tubes. […] Rabindran, S. […] Alternatively, in time-course experiments, IA derivatives at a constant concentration of 10 μM were added to a CCRF-CEM cell suspension incubated at 37° C., and 1 ml aliquots were removed at variable time points up to 1 hour. Following incubation, test tubes were transferred to ice and centrifuged at 4° C. Cells were then washed twice and re-suspended in ice-cold PBS containing 1% fetal calf serum and kept in the dark at 4° C. until analysis. […] Quantitative evaluation of ABCG2 interaction with various IA derivatives: The extent of ABCG2-mediated resistance was expressed using the Resistance Fold (RF) parameter representing the ratio between the IC50 values of the resistant cells and parental cells.

[3] = system: A549 cells; test: MTT cytotoxicity assay, parental A549 cells; format: cell-based, Human; conditions: 96 hours exposure, mean of at least three experiments
Procedure: as §1, §2, §3

Compound | IC50 [1] [µM] | RF (resistance fold) [1] | ABCG2-mediated extrusion / interaction with ABCG2 (in words) [2] | IC50 [3] [µM] | resistance of A549/K1.5 cells (in words) ([1]; versus parental A549 cells) | hypersensitivity of A549/K1.5 cells ([1]; versus parental A549 cells) [fold]
CCCCN(CCCC)CCNc1ccc2nc(C)n3c4ccc(O)cc4c(=O)c1c23.Cl [C-1315] | 3.46 ± 0.16 | 2.05 | failed to display any significant interaction with ABCG2 | 1.69 ± 0.26 |  | 
CN(C)CCNc1ccc2ncn3c4ccccc4c(=O)c1c23.Cl [C-1176] | 1.21 ± 0.65 | 0.51 |  | 2.35 ± 0.75 |  | 
CCN(CC)CCNc1ccc2ncn3c4ccc(C)cc4c(=O)c1c23.Cl [C-1554] | 3.07 ± 0.8 | 1.51 |  | 2.02 ± 0.33 |  | 
Cc1nc2ccc(NCCN(C)C)c3c(=O)c4ccccc4n1c23.Cl [C-1213] | 18.3 ± 2.4 | 1.49 |  | 12.3 ± 2.5 |  | 
CN(C)CCNc1ccc2ncn3c4ccc(O)cc4c(=O)c1c23.Cl [C-1584] | 0.25 ± 0.01 | 19.20 |  | 0.01 ± 0.002 | prominent resistance | 
CCN(CC)CCNc1ccc2ncn3c4c(O)cccc4c(=O)c1c23.Cl [C-1633] | 9.83 ± 1.44 | 4.35 |  | 2.26 ± 0.33 | prominent resistance | 
CCN(CC)CCNc1ccc2ncn3c4c(OC)ccc(OC)c4c(=O)c1c23.Cl [C-1503] | 3.09 ± 0.74 | 0.88 |  | 3.5 ± 0.64 |  | 
CCN(CC)CCNc1ccc2ncn3c4ccccc4c(=O)c1c23.Cl [C-1415] | 2.38 ± 0.12 | 0.88 |  | 2.7 ± 0.21 |  | 
CCN(CC)CCNc1ccc2ncn3c4ccc(OC)cc4c(=O)c1c23.Cl [C-1330] | 0.97 ± 0.08 | 0.45 |  | 2.16 ± 0.27 |  | 2.2
CCN(CC)CCNc1ccc2ncn3c4cc(O)ccc4c(=O)c1c23.Cl [C-1419] | 31.3 ± 2.55 | 10.70 |  | 2.92 ± 0.42 | prominent resistance | 
